Experiments:
Assay type in all cases: biochemical
human MAO-A = human MAO-A (Homo sapiens (Human), UniProt P21397); assay: Human MAO-A assay (Amplex Red fluorescence, recombinant enzyme); settings: substrate p-tyramine 150 μM
Description: (§1) The MAO-A and MAO-B enzyme activity of the compounds, according to the present invention, was estimated following an assay adapted from the method described by Holt et al. (Anal. Biochem. 244, 384-392, 1997). The MAO experiments were performed using a fluorescence-based detection of resorufin, obtained by a reaction of released from the biological sample hydrogen peroxide with 10-acetyl-3,7-dihydroxyphenoxazine (ADHP) in the presence of a peroxidase (horseradish peroxidase-coupled reaction, HRP). The inhibitory in vitro MAO activity of the compounds of general Formula I was investigated at rat and human MAO-A and MAO-B. To perform rat MAO-A and MAO-B experiments, a preliminary membrane preparation of mitochondrial-enriched rat livers isolated from male Sprague-Dawley rats (Harlan Sprague Dawley, Dublin, US) was required. As sources for recombinant human MAO-A and MAO-B enzymes were used microsomal products, prepared from baculovirus-infected insect cells expressing human MAO-A (Sigma-Aldrich, M7316) and human MAO-B (Sigma-Aldrich, M7441), respectively.
(§2) To estimate MAO inhibitory activity of the compounds of Formula I at rat and human MAO-A and MAO-B, the corresponding test compound was dissolved in 100% DMSO and subsequently added to the appropriate enzyme solution containing rat liver mitochondria (rat MAO-A and -B) or recombinant human protein (for determination of human MAO-A and -B) in sodium phosphate buffer. The test sample was incubated for 30 min at room temperature prior to the addition of Amplex Red reagent (Invitrogen A12214) using for the fluorescence-based measuring of MAO inhibitory activity. The enzymatic reaction was started by the addition of the substrate p-tyramine. The fluorescence measurements were performed over a period of 45 min using a microplate fluorescence reader (excitation at 544 nm and emission at 590 nm). IC50 values were determined from the inhibition curves obtained using different inhibitor concentrations in triplicate within the same experiment. A four-parameter logistic equation was used to fit the dose-response curves for test compounds using a computer program.
(§3) MAO-A and MAO-B enzymatic activity of the compounds was measured in 96-well-plates using a continuous fluorescence-based assay. This assay was adapted from the method described by Holt et al. (Anal. Biochem., 244, 384-392, 1997). The MAO experiments were performed using the commercial assay kit Amplex Red (Invitrogen A12214). The kit was stored frozen at ≦−20° C. and protected from light before use. The Amplex Red MAO assay kit was used for the detection of H2O2 released from the biological sample. Subsequently, a reaction of 10-acetyl-3,7-dihydroxyphenoxazine (ADHP, Amplex Red reagent) with H2O2 in the presence of a peroxidase (horse-radish peroxidase-coupled reaction, HRP) led to the production of resorufin. The quantification of hydrogen peroxide released from the biological sample and the subsequent production of resorufin was monitored using a fluorescence microplate reader (Holt et al., Anal. Biochem., 244, 384-392, 1997). To ensure an optimal efficiency of the Amplex Red reagent, the MAO assay's were performed at pH 7.4.
Recombinant human MAO-A enzyme, expressed in baculovirus-infected insect cells, was purchased from Sigma-Aldrich (M7316). The assay was carried out in 96-well plates in a final volume of 200 μL at room temperature. According to the experiment protocol, a solution of test compound (2.0 μL) in DMSO (100%) was added to 90.0 μL of protein solution (0.3 μg prot/well, containing 6.6 μL protein and […] phosphate buffer) and incubated for 30 min prior to the addition of 90 μL of freshly prepared Amplex Red reagent. The Amplex Red reagent was prepared as described for rat MAO-A. The enzymatic reaction was started by the addition of 20.0 μL/well of an aqueous solution of the substrate p-tyramine (150 μM final concentration). […]

rat MAO-A = rat MAO-A (Rattus norvegicus (Rat), UniProt P21396); assay: Rat MAO-A assay (Amplex Red fluorescence, rat liver mitochondria); settings: deprenyl-pretreated, substrate p-tyramine 300 μM
Sequence of rat MAO-A (P21396 whole entry): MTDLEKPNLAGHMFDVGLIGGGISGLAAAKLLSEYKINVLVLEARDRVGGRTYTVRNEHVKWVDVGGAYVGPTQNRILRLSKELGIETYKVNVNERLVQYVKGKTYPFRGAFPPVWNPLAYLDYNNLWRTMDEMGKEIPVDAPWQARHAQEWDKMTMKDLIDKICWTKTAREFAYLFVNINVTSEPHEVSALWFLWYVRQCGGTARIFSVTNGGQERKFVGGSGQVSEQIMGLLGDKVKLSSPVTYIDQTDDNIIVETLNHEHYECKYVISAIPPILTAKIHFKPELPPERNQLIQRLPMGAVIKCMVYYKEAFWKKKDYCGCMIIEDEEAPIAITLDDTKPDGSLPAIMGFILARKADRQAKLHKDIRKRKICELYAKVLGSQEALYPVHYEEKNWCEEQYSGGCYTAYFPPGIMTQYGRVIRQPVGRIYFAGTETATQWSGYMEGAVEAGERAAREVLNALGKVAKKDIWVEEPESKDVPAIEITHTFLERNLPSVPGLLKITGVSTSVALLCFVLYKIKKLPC
Description: as §1, §2, §3
MAO enzyme-containing mitochondrial-enriched fractions of rat were obtained from male Sprague-Dawley rat livers (250-300 g, Harlan Sprague-Dawley, Dublin, Va., US). The livers (10.0 g) were dissected, given into 15.0 mL of an ice-cold 5.0 mM Hepes buffer (pH 7.4), containing 210 mM mannitol, 70 mM sucrose, 0.5 mM ethylene glycoltetraacetic acid (EGTA), and 2.0 mg/mL of bovine serum albumin (BSA), and homogenized using a glass/Teflon potter (10 ups and downs at 1100 rpm). After homogenization, the volume is adjusted to 100 mL with the same buffer. After a low speed centrifugation (10 min at 600 g; 4° C.), the supernatant was further centrifuged at 15,000 rpm for 5 min at +4° C. […]

human MAO-B = human MAO-B (Homo sapiens (Human), UniProt P27338); assay: Human MAO-B assay (Amplex Red fluorescence, recombinant enzyme); settings: substrate p-tyramine
Sequence of human MAO-B (P27338 whole entry): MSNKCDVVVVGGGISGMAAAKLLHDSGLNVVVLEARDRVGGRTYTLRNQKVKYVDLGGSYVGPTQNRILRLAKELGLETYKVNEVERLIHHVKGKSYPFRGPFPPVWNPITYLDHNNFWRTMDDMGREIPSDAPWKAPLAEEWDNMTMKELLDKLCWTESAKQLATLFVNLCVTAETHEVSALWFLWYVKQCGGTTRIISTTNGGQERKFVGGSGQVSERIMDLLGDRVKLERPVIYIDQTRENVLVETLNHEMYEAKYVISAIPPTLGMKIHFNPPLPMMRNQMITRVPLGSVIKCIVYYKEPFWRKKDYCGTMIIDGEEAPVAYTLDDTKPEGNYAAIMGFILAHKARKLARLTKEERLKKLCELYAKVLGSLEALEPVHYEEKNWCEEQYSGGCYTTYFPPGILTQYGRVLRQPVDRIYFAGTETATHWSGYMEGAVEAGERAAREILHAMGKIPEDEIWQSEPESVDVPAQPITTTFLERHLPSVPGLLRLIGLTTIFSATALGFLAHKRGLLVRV
Description: (§4) To estimate MAO inhibitory activity of the compounds of Formula I at rat and human MAO-A and MAO-B, the corresponding test compound was dissolved in 100% DMSO and subsequently added to the appropriate enzyme solution containing rat liver mitochondria (rat MAO-A and -B) or recombinant human protein (for determination of human MAO-A and -B) in sodium phosphate buffer. The test sample was incubated for 30 min at room temperature prior to the addition of Amplex Red reagent (Invitrogen A12214) using for the fluorescence-based measuring of MAO inhibitory activity. The enzymatic reaction was started by the addition of the substrate p-tyramine. […] IC50 values were determined from the inhibition curves obtained using different inhibitor concentrations in triplicate within the same experiment. A four-parameter logistic equation was used to fit the dose-response curves for test compounds using a computer program.
MAO-A and MAO-B enzymatic activity of the compounds was measured in 96-well-plates using a continuous fluorescence-based assay. […] The MAO experiments were performed using the commercial assay kit Amplex Red (Invitrogen A12214). The kit was stored frozen at ≦−20° C. and protected from light before use. The Amplex Red MAO assay kit was used for the detection of H2O2 released from the biological sample. Subsequently, a reaction of 10-acetyl-3,7-dihydroxyphenoxazine (ADHP, Amplex Red reagent) with H2O2 in the presence of a peroxidase (horse-radish peroxidase-coupled reaction, HRP) led to the production of resorufin. […] To ensure an optimal efficiency of the Amplex Red reagent, the MAO assay's were performed at pH 7.4.
The assay was carried out in 96-well plates in a final volume of 200 μL at room temperature. According to the experiment protocol, a solution of test compound (2.0 μL) in DMSO (100%) was added to 90.0 μL of protein solution (0.3 μg prot/well, containing 6.6 μL protein and 9.993 μL phosphate buffer) and incubated for 30 min prior to the addition of 90 μL of freshly prepared Amplex Red reagent. […] The p-tyramine solution was prepared from p-tyramine hydrochloride (45 μL) in water (100 mM) and phosphate buffer (2955 μL). […] DMSO (2.0 μL) was used as a negative control.
Recombinant human MAO-B enzyme, expressed in baculovirus-infected insect cells, was purchased from Sigma-Aldrich (M7441).

rat MAO-B = rat MAO-B (Rattus norvegicus (Rat), UniProt P19643); assay: Rat MAO-B assay (Amplex Red fluorescence, rat liver mitochondria); settings: clorgyline-pretreated, substrate p-tyramine
Sequence of rat MAO-B (P19643 whole entry): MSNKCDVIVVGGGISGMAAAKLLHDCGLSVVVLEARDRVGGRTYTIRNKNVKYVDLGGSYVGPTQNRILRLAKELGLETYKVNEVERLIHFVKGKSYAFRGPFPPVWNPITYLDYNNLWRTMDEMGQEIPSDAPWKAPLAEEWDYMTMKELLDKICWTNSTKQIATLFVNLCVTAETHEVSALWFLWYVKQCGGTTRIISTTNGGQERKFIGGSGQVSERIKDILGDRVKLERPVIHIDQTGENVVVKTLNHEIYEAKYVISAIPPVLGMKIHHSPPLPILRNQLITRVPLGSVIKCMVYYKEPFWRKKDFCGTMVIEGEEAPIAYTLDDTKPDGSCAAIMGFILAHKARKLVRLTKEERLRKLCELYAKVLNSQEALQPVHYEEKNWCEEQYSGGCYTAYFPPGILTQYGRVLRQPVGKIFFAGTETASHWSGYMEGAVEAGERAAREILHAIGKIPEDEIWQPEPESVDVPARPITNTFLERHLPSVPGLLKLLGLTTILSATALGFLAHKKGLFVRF
Description: as §4
MAO enzyme-containing mitochondrial-enriched fractions of rat were obtained from male Sprague-Dawley rat livers (250-300 g, Harlan Sprague-Dawley, Dublin, Va., US). The livers (10.0 g) were dissected, given into 15.0 mL of an ice-cold 5.0 mM Hepes buffer (pH 7.4), containing 210 mM mannitol, 70 mM sucrose, 0.5 mM ethylene glycoltetraacetic acid (EGTA), and 2.0 mg/mL of bovine serum albumin (BSA), and homogenized using a glass/Teflon potter (10 ups and downs at 1100 rpm). After homogenization, the volume is adjusted to 100 mL with the same buffer. After a low speed centrifugation (10 min at 600 g; 4° C.), the supernatant was further centrifuged at 15,000 rpm for 5 min at +4° C. The resulting pellet was resuspended in 2.0 mL of a 50 mM sodium phosphate buffer (pH 7.4) and stored at −80° C. in aliquots of 1.0 mL until further use.
Assays were performed in 96-well plates in a final volume of 200 μL at room temperature. […] Test compounds (2.0 μL), dissolved in DMSO (100%), were added to 90.0 μL of mitochondrial preparation (25.0 μg prot) and incubated for 30 min prior to the addition of 90 μL of freshly prepared Amplex Red reagent, prepared as recommended in the kit from Invitrogen (A12214). For a 96-well plate, 1.0 mg of Amplex Red, dissolved in 200 μL of DMSO (100%) and 100 μL of reconstituted horse-radish peroxidase (HRP 200 U/mL, Sigma Aldrich P6782) stock solution (kit vial+1.0 mL of sodium phosphate buffer) were added to 9700 μL of sodium phosphate buffer (250 mM at pH 7.4).

Sequence of human MAO-A (P21397 whole entry): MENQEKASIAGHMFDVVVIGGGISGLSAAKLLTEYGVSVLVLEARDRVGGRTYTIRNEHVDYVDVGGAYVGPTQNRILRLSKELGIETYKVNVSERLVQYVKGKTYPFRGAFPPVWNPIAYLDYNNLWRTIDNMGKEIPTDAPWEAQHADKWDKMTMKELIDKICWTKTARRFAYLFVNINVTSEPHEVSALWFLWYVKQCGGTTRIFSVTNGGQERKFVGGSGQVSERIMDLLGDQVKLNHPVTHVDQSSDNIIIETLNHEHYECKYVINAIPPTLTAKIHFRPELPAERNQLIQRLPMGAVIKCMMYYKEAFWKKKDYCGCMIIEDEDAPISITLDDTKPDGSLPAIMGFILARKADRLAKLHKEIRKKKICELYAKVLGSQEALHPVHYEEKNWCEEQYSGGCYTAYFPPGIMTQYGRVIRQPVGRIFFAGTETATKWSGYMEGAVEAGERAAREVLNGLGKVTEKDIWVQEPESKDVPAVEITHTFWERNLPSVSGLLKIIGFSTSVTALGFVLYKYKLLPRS

SMILES | IC50 (human MAO-A) | IC50 (rat MAO-A) | IC50 (human MAO-B) | IC50 (rat MAO-B)
O=C(Nc1ccc2[nH]ccc2n1)c1ccc(Cl)c(Cl)c1 [Example 1, 3,4-dichloro-N-(1H-pyrrolo[3,2-b]pyridin-5-yl)benzamide] | > 10000 nM | > 10000 nM |  | 
O=C(Nc1ccc2c(ccn2C(=O)c2ccc(Cl)c(F)c2)n1)c1ccc(Cl)c(F)c1 [Example 5, 4-chloro-N-(1-(4-chloro-3-fluorobenzoyl)-1H-pyrrolo[3,2-b]pyridin-5-yl)-3-fluorobenzamide] | > 10000 nM | > 10000 nM | 27.5 ± 2 nM | 246 ± 53 nM
O=C(Nc1cc2cc[nH]c2cn1)c1ccc(Cl)c(Cl)c1 [Example 6, 3,4-dichloro-N-(1H-pyrrolo[2,3-c]pyridin-5-yl)benzamide] | < 10000 nM | ≥ 10000 nM | 28.5 ± 2.4 nM | 224 ± 17 nM

The next lines start with the values.

IC50 (human MAO-A) | IC50 (rat MAO-A) | IC50 (human MAO-B) | IC50 (rat MAO-B) | SMILES
> 10000 nM | > 10000 nM | 3.27 ± 0.04 nM | 4.9 ± 0.33 nM | O=C(Nc1ccc2[nH]ccc2n1)c1ccc(F)c(Cl)c1 [Example 2, 3-chloro-4-fluoro-N-(1H-pyrrolo[3,2-b]pyridin-5-yl)benzamide]
> 10000 nM | > 10000 nM | 10.9 ± 0.75 nM | 85.5 ± 5.8 nM | O=C(Nc1ccc2[nH]ccc2n1)c1ccc(Cl)c(F)c1 [Example 3, 4-chloro-3-fluoro-N-(1H-pyrrolo[3,2-b]pyridin-5-yl)benzamide]
> 10000 nM | > 10000 nM | 46.1 ± 1.5 nM | 153 ± 11 nM | O=C(Nc1ccc2[nH]ccc2n1)c1ccc(F)c(F)c1 [Example 4, 3,4-difluoro-N-(1H-pyrrolo[3,2-b]pyridin-5-yl)benzamide]
< 10000 nM | < 10000 nM | 72 ± 2.6 nM | 158 ± 16 nM | O=C(Nc1cc2cc[nH]c2cn1)c1ccc(F)c(Cl)c1 [Example 7, 3-chloro-4-fluoro-N-(1H-pyrrolo[2,3-c]pyridin-5-yl)benzamide]
> 10000 nM | > 10000 nM | 277 ± 12 nM |  | O=C(Nc1cc2cc[nH]c2cn1)c1ccc(F)c(F)c1 [Example 8, 3,4-difluoro-N-(1H-pyrrolo[2,3-c]pyridin-5-yl)benzamide]
